Assay results as given in patent US9340577B2, “HLA binding motifs and peptides and their uses” (priority 1992, dated 2016).
Like-named read-outs stand apart in the source and are kept apart here. No end group written: not given here.

How the values were obtained:
[1] = biological target: DR1 (DRB1*0101) (Homo sapiens, UniProt P01903+P01911, A100R/D57E/F55L/F60I/F76Y/I96L/L162R/M171V/P40L/Q125E/R42F/V115G/Y59C); test: biochemical; assay type: binding
[2] = biological target: DR4w4 (DRB1*0401) (Homo sapiens, UniProt P01903+P01911, A100K/A169T/F76Y/I96L/K127E/L162R/M171V/N62H/P40V/Q125Y/R42H/S133A/S149N/S66Y/V115G/V209L/W38E); test: biochemical; assay type: binding
[3] = biological target: DR7 (DRB1*0701) (Homo sapiens, UniProt P01903+P01911, A100R/A102G/A103Q/D57E/D86V/E43K/F76Y/K127E/L162R/M171V/P40G/Q125H/Q99D/R33Q/R42Y/R54Q/S133A/S66F/T210M/V115G/Y107V/Y59L/Y89S); test: biochemical; assay type: binding
[4] = biological target: DRB1*0405 (Homo sapiens, UniProt P01903+P01911, A100R/A169T/D86S/F76Y/I96L/K127E/L162R/M171V/N62H/P40V/Q125Y/R42H/S133A/S149N/S66Y/V115G/V209L/W38E); test: biochemical; assay type: binding
[5] = biological target: DRB1*0802 (Homo sapiens, UniProt P01903+P01911, A100R/A103L/A169T/F76Y/H45Y/I96F/K41T/L162R/M171V/P40S/Q125H/Q178H/Q39Y/Q99D/R218S/R42G/S66Y/V115G/W38E); test: biochemical; assay type: binding
[6] = biological target: DRB1*0901 (Homo sapiens, UniProt P01903+P01911, A100R/A103E/D57H/D86V/F55Y/F60I/F76Y/I96F/K127E/L162R/M171V/P40D/Q125H/Q99R/R33Q/R42F/S133A/S66N/T210M/V115G/W38K/Y107V/Y59G/Y89S); test: biochemical; assay type: binding
[7] = biological target: DRB1*1302 (Homo sapiens, UniProt P01903+P01911, A100E/A169T/K41T/L162R/M171V/P40S/Q125H/Q178H/Q39Y/Q99D/R42S/S66N/T262R/V115G/W38E/Y61H); test: biochemical; assay type: binding
[8] = biological target: DRB1*1101 (Homo sapiens, UniProt P01903+P01911, A100R/A169T/A87E/I96F/K41T/L162R/M171V/P40S/Q125H/Q178H/Q39Y/Q99D/R42S/S66Y/T262R/V115G/W38E); test: biochemical
[9] = biological target: DRB5*0101 (Homo sapiens, UniProt P01903+Q30154); test: biochemical
[10] = biological target: DRB1*1501 (Homo sapiens, UniProt P01903+P01911); test: biochemical; assay type: binding
[11] = biological target: DRB4*0101 (Homo sapiens, UniProt P01903+P13762, G164S); test: biochemical; assay type: binding
[12] = biological target: HLA-A1 (A*0101) (Homo sapiens, UniProt P04439, A114D/A174V/A182V/D101N/D185E/E176A/E190D/L180R/Q94H/R68K/S129P/T187R/V100A/V91M/W191G); test: biochemical; assay type: binding
[13] = biological target: A2.1 HLA molecules (Homo sapiens, UniProt P04439, D140Y/D185E/D98H/E176V/E277Q/G131W/G231S/I119V/I121R/I166T/I218V/L300P/L318F/N151K/N90K/P208A/P217A/Q86G/Q94H/R138H/R169H/T345S); assay type: binding; parameters: A*0201 / A2.1 Binding / A2 Bind. / A2 / A2.1 (binding capacity): scale not given here

DRB1*1302, sequence (P01903 26-254 limits assumed, other chains not shown): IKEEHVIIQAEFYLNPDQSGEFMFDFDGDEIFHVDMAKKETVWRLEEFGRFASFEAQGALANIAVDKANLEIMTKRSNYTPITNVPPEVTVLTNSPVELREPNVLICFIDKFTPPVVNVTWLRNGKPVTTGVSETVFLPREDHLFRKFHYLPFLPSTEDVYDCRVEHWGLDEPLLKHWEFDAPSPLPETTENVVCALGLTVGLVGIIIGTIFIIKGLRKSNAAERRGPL
DRB1*1101, sequence (P01903 26-254 limits assumed, other chains not shown): as above

Compound	IC50 [1]	IC50 [2]	IC50 [3]	IC50 [4]	IC50 [5]	IC50 [6]	IC50 [7]	IC50 ([8]; Binding affinity DRB1 *1101)	IC50 [10]	A1 [12]	A2 Bind. [13]	further results
CC(C)C[C@H](NC(=O)[C@H](CC(C)C)NC(=O)[C@@H]1CCCN1C(=O)[C@@H](N)CC(N)=O)C(=O)NCC(=O)N[C@@H](C)C(=O)N[C@@H](C)C(=O)N[C@H](C(=O)N1CCC[C@H]1C(=O)N[C@H](C(=O)NCC(=O)N[C@@H](CC(N)=O)C(=O)N[C@@H](CC(N)=O)C(=O)N[C@@H](CCCCN)C(=O)N[C@@H](CCCNC(=N)N)C(=O)O)[C@@H](C)O)[C@@H](C)O [Peptide 89.0165]	0.655 µM	1.24 µM	> 20 µM	8.25 µM	> 20 µM	9.38 µM	> 20 µM	> 20 µM				IC50 ([9]; Binding affinity DRB5 *0101): > 20 µM
CSCC[C@H](NC(=O)[C@H](Cc1ccc(O)cc1)NC(=O)[C@H](Cc1ccc(O)cc1)NC(=O)[C@@H](NC(=O)[C@H](CO)NC(=O)[C@H](CC(=O)O)NC(=O)[C@H](Cc1c[nH]c2ccccc12)NC(=O)[C@H](C)NC(=O)[C@@H](N)C(C)C)C(C)C)C(=O)N[C@H](C(=O)N[C@@H](CC(=O)O)C(=O)N[C@@H](C)C(=O)NCC(=O)N[C@H](C(=O)N[C@@H](Cc1c[nH]c2ccccc12)C(=O)O)[C@@H](C)O)[C@@H](C)O [Peptide 1601.10]	7.86 µM	1.66 µM		7.43 µM	> 20 µM	0.587 µM	> 20 µM	> 20 µM	> 20 µM			IC50 ([9]; Binding affinity DRB5 *0101): > 20 µM
DCKWGVLILALLRYK [Peptide 89.0026]		1.09 µM	7.36 µM	1.34 µM	1.8 µM	1 µM	0.786 µM	0.389 µM	0.41 µM			IC50 ([9]; Binding affinity DRB5 *0101): 1.12 µM
FAGIVTKLPTANNTT [Peptide 89.0175]			1.28 µM	5.87 µM	1.56 µM	> 20 µM		7.63 µM	2.55 µM			IC50 [11]: 1.2 µM
GLLECCARCLV										0.0515	0.0515	
GLVGLRIVFA										0.0195	0.0195	
HMLQLTVWGI										0.0677	0.0677	
IAATYNFAV										0.0540	0.0540	
IISLWDQSL										0.0179	0.0179	
IKFFQGSVISFVNSQ [Peptide 89.0136]	> 20 µM		> 20 µM	> 20 µM	> 20 µM	> 20 µM	0.011 µM		> 20 µM			IC50 [8]: > 20 µM; IC50 [9]: 5.5 µM
IMIVGGLVGL										0.0252	0.0252	
LLGRRGWEV										0.0142	0.0142	
LLIAARIVEL										0.1550	0.1550	
LLNATDIAV										0.0607	0.0607	
LLNATDIAVA										0.0117	0.0117	
LLQYWSQEL										0.0265	0.0265	
LLVFACSAV										0.0107	0.0107	
LLYKLDIVSI										0.0245	0.0245	
LMQLKCPPLLITSNI [Peptide 89.0057]	0.214 µM			1.48 µM	2.8 µM	5.08 µM	0.123 µM		0.16 µM			IC50 [11]: 0.068 µM; IC50 ([9]; Binding affinity DRB5 *0101): > 20 µM
MLQLTVWGI										0.2450	0.2450	
MVQVEEQQTTLSCNG [Peptide 89.0040]		0.34 µM	> 20 µM	> 20 µM	> 20 µM	> 20 µM	> 20 µM	> 20 µM	> 20 µM			IC50 ([9]; Binding affinity DRB5 *0101): > 20 µM

Compound	IC50 [1]	IC50 [2]	IC50 [3]	IC50 [4]	IC50 [5]	IC50 [6]	IC50 [7]	IC50 ([8]; Binding affinity DRB1 *1101)	IC50 [10]	A1 [12]	A2 Bind. [13]	further results
NCILLYGPANTGKSY [Peptide 89.0087]	0.11 µM	0.28 µM	> 20 µM	7.34 µM	13.5 µM	> 20 µM		8.05 µM	0.066 µM			IC50 ([9]; Binding affinity DRB5 *0101): 6.46 µM
NGWFYVEAVVEKKTG [Peptide 90.0029]	0.219 µM	0.031 µM	0.307 µM	0.027 µM	6.4 µM	0.955 µM	5.49 µM	2.74 µM	> 20 µM			
NTEVETQQMLQVEGR [Peptide 89.0002]	4.98 µM		1.85 µM	> 20 µM	> 20 µM	> 20 µM	2.33 µM	> 20 µM	15.5 µM			IC50 ([9]; Binding affinity DRB5 *0101): > 20 µM
NTEVETQQMVQQVES [Peptide 89.0059]	> 20 µM	> 20 µM	> 20 µM	> 20 µM	> 20 µM	> 20 µM		> 20 µM	> 20 µM			IC50 ([9]; Binding affinity DRB5 *0101): > 20 µM
NTEVETQQMVQVEEQ [Peptide 89.0039]	2.63 µM	> 20 µM	> 20 µM	> 20 µM		> 20 µM	> 20 µM	> 20 µM	> 20 µM			IC50 ([9]; Binding affinity DRB5 *0101): > 20 µM
PMAVSKAKACQAIEL [Peptide 90.0013]	0.089 µM			> 20 µM			0.535 µM	1.55 µM	16.6 µM			IC50 [11]: 1.59 µM; IC50 ([9]; Binding affinity DRB5 *0101): 12.8 µM
PMCMMIEPPKLRSTA [Peptide 90.0034]	0.037 µM	0.366 µM	0.369 µM	2.11 µM	4.33 µM	11.3 µM	1.58 µM	2.04 µM	3.34 µM			IC50 ([9]; Binding affinity DRB5 *0101): 0.271 µM
PPLLITTNINPMLDA [Peptide 89.0139]	1.22 µM	0.623 µM	7.54 µM	3.39 µM	7.65 µM	> 20 µM	> 20 µM		4.78 µM			IC50 [8]: 7.37 µM
RLTVSKLMSQLLNIP [89,0100]	10.5 µM	> 20 µM		> 20 µM								
RMYGVLPWI										0.1650	0.1650	
RVIEVLQRA										0.1963	0.1963	
SLCADARMYGV										0.0140	0.0140	
SLLNATDIAV										0.1050	0.1050	
SLLTFMIAA										0.5300	0.5300	
TIIVHLNESV										0.0350	0.0350	
TLQCKIKQII										0.0200	0.0200	
TNCMLIQPPKLRSTA [89,0046]	0.017 µM	1.86 µM		3.22 µM								
TVWGIKQLQA										0.0150	0.0150	
WCIIGMGVTPSVAEG [Peptide 89.0097]	> 20 µM	> 20 µM	3.55 µM	> 20 µM	> 20 µM	> 20 µM	2.09 µM	> 20 µM	> 20 µM			IC50 ([9]; Binding affinity DRB5 *0101): > 20 µM
WLWYIKIFI										0.0355	0.0355	
YLVCGERGFFYTKPT [Peptide 9000.0079]		> 20.5 µM		> 30.1 µM	> 54.4 µM							
